Test results published in ChEMBL document CHEMBL4229367, “Identification of multi-target inhibitors of leukotriene and prostaglandin E2 biosynthesis by structural tuning of the FLAP inhibitor BRP-7” (Eur J Med Chem, 2018).

Assays:
[1] = target: T1, Arachidonate 5-lipoxygenase-activating protein (Homo sapiens) (UniProt P20292); assay: Inhibition of FLAP in A23187-stimulated human neutrophils assessed as remaining enzyme activity by measuring 5-LO product formation at 1 uM preincubated for 15 mins followed by A23187 and arachidonic acid addition and measured after 10 mins by UV based RP-HPLC analysis (reference value: 100%)
T1 sequence (whole entry): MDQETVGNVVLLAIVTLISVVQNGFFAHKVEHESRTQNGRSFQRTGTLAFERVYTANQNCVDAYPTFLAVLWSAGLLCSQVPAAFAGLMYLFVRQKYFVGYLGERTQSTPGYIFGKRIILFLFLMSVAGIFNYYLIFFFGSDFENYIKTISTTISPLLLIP

[2] = target: T1, Arachidonate 5-lipoxygenase-activating protein (Homo sapiens); assay: Inhibition of FLAP in A23187-stimulated human neutrophils assessed as remaining enzyme activity by measuring 5-LO product formation at 0.1 uM preincubated for 15 mins followed by A23187 and arachidonic acid addition and measured after 10 mins by UV based RP-HPLC analysis (reference value: 100%)
[3] = target: T2, Arachidonate 5-lipoxygenase-activating protein (Homo sapiens, UniProt P20292); assay: Inhibition of FLAP in A23187-stimulated human neutrophils assessed as reduction in 5-LO product formation preincubated for 15 mins followed by A23187 and arachidonic acid addition and measured after 10 mins by UV based RP-HPLC analysis
T2 sequence (P20292 whole entry): T1 sequence (whole entry)

[4] = target: T1, Arachidonate 5-lipoxygenase-activating protein (Homo sapiens); assay: Inhibition of FLAP in A23187-stimulated human neutrophils assessed as remaining enzyme activity by measuring 5-LO product formation at 10 uM preincubated for 15 mins followed by A23187 and arachidonic acid addition and measured after 10 mins by UV based RP-HPLC analysis (reference value: 100%)
[5] = target: T3, Prostaglandin E synthase (Homo sapiens) (UniProt O14684); assay: Inhibition of mPGES1 in IL-1beta-stimulated human A549 cell microsomal fractions assessed as reduction in PGE2 production at 3 uM preincubated for 15 mins followed by PGH2 substrate addition and measured after 1 min by RP-HPLC analysis relative to control
T3 sequence (whole entry): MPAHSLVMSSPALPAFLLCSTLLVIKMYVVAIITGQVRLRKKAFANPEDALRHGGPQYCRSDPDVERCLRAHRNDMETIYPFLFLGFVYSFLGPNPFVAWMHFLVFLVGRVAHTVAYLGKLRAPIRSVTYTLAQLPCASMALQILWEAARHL

[6] = target: T3, Prostaglandin E synthase (Homo sapiens); assay: (§1) Inhibition of mPGES1 in IL-1beta-stimulated human A549 cell microsomal fractions assessed as reduction in PGE2 production preincubated for 15 mins followed by PGH2 substrate addition and measured after 1 min by RP-HPLC analysis relative to control
[7] = target: T4, Prostaglandin E synthase (Homo sapiens, UniProt O14684); assay: as §1
T4 sequence (O14684 whole entry): T3 sequence (whole entry)

[8] = target: T5, Polyunsaturated fatty acid 5-lipoxygenase (Homo sapiens, UniProt P09917); assay: Inhibition of recombinant human 5-LO expressed in Escherichia coli BL21 incubated for 15 mins prior to prewarming for 30 secs followed by CaCl2+ and arachidonic acid addition and measured after 10 mins by RP-HPLC analysis
T5 sequence (P09917 whole entry): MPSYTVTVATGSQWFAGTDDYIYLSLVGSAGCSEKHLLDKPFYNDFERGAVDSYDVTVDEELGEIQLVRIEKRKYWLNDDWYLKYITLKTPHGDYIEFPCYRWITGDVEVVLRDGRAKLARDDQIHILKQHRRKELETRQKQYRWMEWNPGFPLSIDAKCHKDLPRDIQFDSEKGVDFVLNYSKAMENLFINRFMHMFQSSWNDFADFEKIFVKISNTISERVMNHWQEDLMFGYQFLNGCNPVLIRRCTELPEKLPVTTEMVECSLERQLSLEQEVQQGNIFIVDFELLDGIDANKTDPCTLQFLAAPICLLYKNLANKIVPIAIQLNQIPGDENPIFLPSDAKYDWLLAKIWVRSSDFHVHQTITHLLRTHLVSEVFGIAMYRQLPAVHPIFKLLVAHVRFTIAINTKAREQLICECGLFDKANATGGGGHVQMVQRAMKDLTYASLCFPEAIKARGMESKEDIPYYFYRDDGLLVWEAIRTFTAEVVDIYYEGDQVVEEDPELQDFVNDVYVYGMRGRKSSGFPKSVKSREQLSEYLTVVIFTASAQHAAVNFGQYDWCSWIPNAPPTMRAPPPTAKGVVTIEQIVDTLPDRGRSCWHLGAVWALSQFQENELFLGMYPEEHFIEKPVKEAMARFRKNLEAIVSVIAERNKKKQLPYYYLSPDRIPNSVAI

[9] = target: T6, Leukotriene C4 synthase (Homo sapiens, UniProt Q16873); assay: Inhibition of human LTC4 synthase expressed in HEK293 cell microsomes preincubated for 10 mins followed by LTA4-methyl ester addition and measured after 10 mins by UPLC-MS/MS analysis
T6 sequence (Q16873 whole entry): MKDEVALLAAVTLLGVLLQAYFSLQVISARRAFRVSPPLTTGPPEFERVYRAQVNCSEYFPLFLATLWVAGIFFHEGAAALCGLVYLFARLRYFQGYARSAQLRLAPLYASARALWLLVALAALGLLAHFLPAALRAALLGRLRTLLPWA

[10] = target: T7, Polyunsaturated fatty acid 5-lipoxygenase (Homo sapiens) (UniProt P09917); conditions: 0.3 uM
T7 sequence (whole entry): T5 sequence (P09917 whole entry)
Description: Inhibition of recombinant human 5-LO expressed in Escherichia coli BL21 at 0.3 uM incubated for 15 mins prior to prewarming for 30 secs followed by CaCl2+ and arachidonic acid addition and measured after 10 mins by RP-HPLC analysis

[11] = target: T1, Arachidonate 5-lipoxygenase-activating protein (Homo sapiens); assay: Inhibition of FLAP in A23187-stimulated human neutrophils assessed as reduction in 5-LO product formation at 1 uM preincubated for 15 mins followed by A23187 and arachidonic acid addition and measured after 10 mins by UV based RP-HPLC analysis

Compound	Activity [1]	Activity [2]	IC50 [3]	inhibition [5]	also measured
CC(C)Cc1ccc(-c2nc3cc(C#N)ccc3n2Cc2ccccc2Cl)cc1	74.3%	93%			
N#Cc1ccc2c(c1)nc(NCCc1c[nH]c3ccccc13)n2Cc1ccccc1Cl	99.2%	97.1%	8800 nM		Activity [4]: 63%
CCC(C)c1ccc(C(C)c2nc3cc(C#N)ccc3n2Cc2ccccc2Cl)cc1 (stereo unspecified)	33.6%	92.1%	700 nM		
CC(C)Cc1ccc(C(C)c2nc3cc(S(N)(=O)=O)ccc3n2Cc2ccccc2Cl)cc1 (stereo unspecified)	16.8%	77.8%	280 nM	> 50%	
CC(C)Cc1ccc(C(C)c2nc3cc(OCC(=O)O)ccc3n2Cc2ccccc2Cl)cc1 (stereo unspecified)	6.38%	67.3%	180 nM	> 50%	
CC(C)Cc1ccc(C(C)c2nc3cc(-c4cccc(C(=O)O)c4)ccc3n2Cc2ccccc2Cl)cc1 (stereo unspecified)	0%	33%	74 nM	> 50%	
CC(C)Cc1ccc(C(C)c2nc3cc(C(N)=S)ccc3n2Cc2ccccc2Cl)cc1 (stereo unspecified)	0.45%	63.1%	160 nM		
N#Cc1ccc2c(c1)nc(CCc1ccc(-c3ccc(N)nc3)cc1)n2Cc1ccccc1Cl	1.4%	76.1%	250 nM		
N#Cc1ccc2c(c1)nc(CCc1ccc(-c3ccc(N)nn3)cc1)n2Cc1ccccc1Cl	25.6%	85.6%	660 nM		
N#Cc1ccc2c(c1)nc(CCc1ccc(-c3cnc(N)cn3)cc1)n2Cc1ccccc1Cl	3.5%	72.7%	260 nM		
N#Cc1ccc2c(c1)nc(NCc1ccc3cc[nH]c3c1)n2Cc1ccccc1Cl	98.5%	93.6%	> 10000 nM		Activity [4]: 84%
CC(C)Cc1ccc(C(C)c2nc3c(CCC(=O)O)cccc3n2Cc2ccccc2Cl)cc1 (stereo unspecified)	1%	85%	190 nM	> 50%	
CC(C)Cc1ccc(C(C)c2nc3cc(-c4ccc(C(=O)O)cc4)ccc3n2Cc2ccccc2Cl)cc1 (stereo unspecified)	0%	3.73%	40 nM	> 50%	inhibition [6]: Dose-dependent effect; IC50 [7]: 2100 nM; IC50 [8]: 3200 nM; IC50 [9]: 15900 nM
CC(C)Cc1ccc(C(C)c2nc3cc(-c4n[nH]c(=S)o4)ccc3n2Cc2ccccc2Cl)cc1 (stereo unspecified)	0%	41.4%	50 nM	> 50%	inhibition [6]: Dose-dependent effect; IC50 [7]: 420 nM; IC50 [8]: 600 nM; IC50 [9]: 6190 nM
CC(C)Cc1ccc(C(C)c2nc3cc(OC(C)(C)C(=O)O)ccc3n2Cc2ccccc2Cl)cc1 (stereo unspecified)	5.47%	75.9%	200 nM	> 50%	
Cc1nc(-c2ccc3c(c2)nc(C(C)c2ccc(CC(C)C)cc2)n3Cc2ccccc2Cl)no1 (stereo unspecified)	1.9%	79%	180 nM		
CC(C)Cc1ccc(C(C)c2nc3cc(C(N)=O)ccc3n2Cc2ccccc2Cl)cc1 (stereo unspecified)	0%	64%	130 nM		
CC(C)Cc1ccc(C(C)c2nc3cc(-c4n[nH]c(=O)o4)ccc3n2Cc2ccccc2Cl)cc1 (stereo unspecified)	0.5%	40.5%	100 nM		
CC(Cc1ccc(-c2cnc(N)nc2)cc1)c1nc2cc(C#N)ccc2n1Cc1ccccc1Cl (stereo unspecified)	4.2%	84.1%	420 nM	< 50%	

Compound	Activity [1]	Activity [2]	IC50 [3]	inhibition [5]	also measured
N#Cc1ccc2c(c1)nc(CCc1ccc(-c3cnc(N)nc3)cc1)n2Cc1ccccc1Cl	8.3%	85.5%	370 nM	< 50%	
CC(C)Cc1ccc(C(C)c2nc3cc(C(=O)O)ccc3n2Cc2ccccc2Cl)cc1 (stereo unspecified)	0%	71.1%	280 nM	> 50%	
CC(C)Cc1ccc(C(C)c2nc3cc(-c4noc(=O)[nH]4)ccc3n2Cc2ccccc2Cl)cc1 (stereo unspecified)	0.67%	87.6%	270 nM	> 50%	
CC(C)CCc1ccc(C(C)c2nc3cc(C#N)ccc3n2Cc2ccccc2Cl)cc1 (stereo unspecified)	87.2%	118%	18000 nM		Activity [4]: 66%
CC(=O)N(O)C/C=C/c1cccc(Oc2ccccc2)c1					inhibition [10]: > 70%
CC(C)Cc1ccc(C(C)c2nc3c(C(=O)O)cccc3n2Cc2ccccc2Cl)cc1 (stereo unspecified)	85%	85%	400 nM		
N#Cc1ccc2c(c1)nc(NCc1ccc3[nH]ccc3c1)n2Cc1ccccc1Cl	84.7%	92.3%	3800 nM		Activity [4]: 44%
CC(C)Cc1ccc(C(C)c2nc3cc(CC(=O)O)ccc3n2Cc2ccccc2Cl)cc1 (stereo unspecified)	16.1%	91.4%	450 nM	> 50%	
CC(C)c1ccc2c(c1)c(SC(C)(C)C)c(CC(C)(C)C(=O)O)n2Cc1ccc(Cl)cc1					IC50 [8]: 3000 nM
CC(C)Cc1ccc(C(C)c2nc3cc(-c4nc(C(=O)O)cs4)ccc3n2Cc2ccccc2Cl)cc1 (stereo unspecified)	1.06%	72.7%	150 nM	> 50%	
CC(C)Cc1ccc(C(C)c2nc3c(CC(=O)O)cccc3n2Cc2ccccc2Cl)cc1 (stereo unspecified)	49.3%	99.3%	> 1000 nM	> 50%	inhibition [11]: 50%
CC(C)Cc1ccc(C(C)c2nc3cc(-c4nnco4)ccc3n2Cc2ccccc2Cl)cc1 (stereo unspecified)	0.45%	63.1%	90 nM	< 50%	
CC(C)Cc1ccc(C(C)c2nc3cc(C#N)ccc3n2Cc2ccccc2Cl)cc1 (stereo unspecified)				> 50%	
CC(C)Cc1ccc(C(C)c2nc3cc(-c4ccccc4C(=O)O)ccc3n2Cc2ccccc2Cl)cc1 (stereo unspecified)	65%	104%	1100 nM	> 50%	
CC(C)Oc1ccc(-c2nc3cc(C#N)ccc3n2Cc2ccccc2Cl)cc1	68.4%	93.7%			
C=C(Cc1ccc(-c2cnc(N)nc2)cc1)c1nc2cc(C#N)ccc2n1Cc1ccccc1Cl			370 nM		
CC(C)Cc1ccc(C(C)c2nc3cc(-c4nnn[nH]4)ccc3n2Cc2ccccc2Cl)cc1 (stereo unspecified)	0%	90.2%	320 nM	> 50%	
CC(c1ccc(CC(C)(C)C)cc1)c1nc2cc(C#N)ccc2n1Cc1ccccc1Cl (stereo unspecified)	51.5%	117%	1700 nM		
